# Experiments:
# [1] = Safety analysis: drug-related treatment-emergent adverse events (TEAE) in three phase I studies; assay type: in vivo, human
# Method: For a detailed safety analysis for emodepside, based on the entire safety population (pharmacokinetic sample and placebo arms) of the phase I clinical trials the reader is referred to the recently published article by Gillon et al.. In the present study, the safety analysis and exposure–adverse events analysis was performed on all subjects whom were included in the population pharmacokinetic analysis (n = 142), i.e. all subjects who received at least 1 dose of the study drug as LSF solution, ASD-tablet A or ASD-tablet B. Safety was assessed in terms of incidence of a drug-related TEAE (as assessed by the investigator) and reported as Medical Dictionary for Regulatory Activities (MedDRA) code. A TEAE was defined as an event that emerged during treatment and having been absent pretreatment, or that worsened relative to the pretreatment state.
# CYP3A4 = details: has been shown; no reference given; cited from earlier work
# [2] = Linear regression of DBS vs. plasma concentrations; design: species or system human; details: DBS concentration = slope × plasma concentration-0.592; r^2 = 0.987, n = 228
# From the text: Deuterated emodepside-D16 was used as the internal standard.
# Supplementary file pntd.0010219.s008.tif: S1 Fig Linear regression analysis (emodepside DBS vs. plasma concentrations). Observations are represented by black open circles, the black solid line represents the line of identity, and the black dotted line represents the linear regression. DBS concentration = 0.605 × plasma concentration-0.592 (r^2 = 0.987, standard error of estimate, SEE = 5.74, n = 228). (TIF) Click here for additional data file.
# [3] = human, in vivo, po; cited from earlier work
# From the text: Currently, emodepside is under clinical development for the treatment of onchocerciasis, following a repurposing strategy and a collaboration agreement between DNDi and Bayer AG [26]. The safety, pharmacokinetics and relative bioavailability of emodepside after oral dosing in healthy male subjects have been evaluated in three phase I clinical trials, including a First-in-Human study. […] The long terminal half-life (> 20 d ...
# [4] = Population pharmacokinetic model (NONMEM) of pooled phase I plasma and DBS concentrations
# [5] = inter-compartmental clearance, oral, 75 kg adult, n = 142
# [6] = nonparametric bootstrap, 75 kg adult
structure (smiles),measurement,setting,value
"CC(C)C[C@H]1C(=O)O[C@H](Cc2ccc(N3CCOCC3)cc2)C(=O)N(C)[C@@H](CC(C)C)C(=O)O[C@H](C)C(=O)N(C)[C@@H](CC(C)C)C(=O)O[C@H](Cc2ccc(N3CCOCC3)cc2)C(=O)N(C)[C@@H](CC(C)C)C(=O)O[C@H](C)C(=O)N1C [emodepside, Emodepside]",Time to resolution of drug-related TEAEs of interest after onset,[1]; all apart from visual impairment in one subject,≤ 48 h
same,Nature and severity of drug-related TEAEs,"[1]; all, apart from moderate headaches in two subjects at 40 mg LSF solution",transient in nature and mild in severity
same,"Lag of drug-related TEAE of interest relative to Tmax, most subjects",[1]; in vivo,0 to 2.5 h
same,Share of drug-related TEAEs of interest occurring at 1–3 h post-dose,[1]; in vivo,83%
same,Time to resolution of visual impairment in one subject,[1]; in vivo,21 days
same,Deaths or severe drug-related TEAEs,[1]; n = 142,no deaths or severe drug-related TEAEs reported
same,"Subjects with drug-related TEAEs of interest, %",[1]; n = 142,19.0%
same,"Abdominal pain, % of subjects with drug-related TEAE","[1]; n = 142, pooled phase I",0.7%
same,"Balance disorder, % of subjects with drug-related TEAE","[1]; n = 142, pooled phase I",0.7%
same,"Cough, % of subjects with drug-related TEAE","[1]; n = 142, pooled phase I",0.7%
same,"Disorientation, % of subjects with drug-related TEAE","[1]; n = 142, pooled phase I",0.7%
same,"Disturbance in attention, % of subjects with drug-related TEAE","[1]; n = 142, pooled phase I",0.7%
same,"Euphoric mood, % of subjects with drug-related TEAE","[1]; n = 142, pooled phase I",1.4%
same,"Eye disorders, % of subjects with drug-related TEAE","[1]; n = 142, pooled phase I",14.1%
same,"Eye pain, % of subjects with drug-related TEAE","[1]; n = 142, pooled phase I",0.7%
same,"Feeling of relaxation, % of subjects with drug-related TEAE","[1]; n = 142, pooled phase I",2.1%
same,"Gastrointestinal disorders, % of subjects with drug-related TEAE","[1]; n = 142, pooled phase I",2.8%
same,"General disorders and administration site conditions, % of subjects with drug-related TEAE","[1]; n = 142, pooled phase I",0.7%
same,"Headache, % of subjects with drug-related TEAE","[1]; n = 142, pooled phase I",4.2%
same,"Hypervigilance, % of subjects with drug-related TEAE","[1]; n = 142, pooled phase I",0.7%
same,"Muscle spasms, % of subjects with drug-related TEAE","[1]; n = 142, pooled phase I",0.7%
same,"Musculoskeletal and connective tissue disorders, % of subjects with drug-related TEAE","[1]; n = 142, pooled phase I",0.7%
same,"Nausea, % of subjects with drug-related TEAE","[1]; n = 142, pooled phase I",2.1%
same,"Nervous system disorders, % of subjects with drug-related TEAE","[1]; n = 142, pooled phase I",12.7%
same,"Nervousness, % of subjects with drug-related TEAE","[1]; n = 142, pooled phase I",0.7%
same,"Oropharyngeal pain, % of subjects with drug-related TEAE","[1]; n = 142, pooled phase I",0.7%
same,"Paraesthesia oral, % of subjects with drug-related TEAE","[1]; n = 142, pooled phase I",0.7%
same,"Photophobia, % of subjects with drug-related TEAE","[1]; n = 142, pooled phase I",1.4%
same,"Photopsia, % of subjects with drug-related TEAE","[1]; n = 142, pooled phase I",0.7%
same,"Pigmentation disorder, % of subjects with drug-related TEAE","[1]; n = 142, pooled phase I",0.7%
same,"Psychiatric disorders, % of subjects with drug-related TEAE","[1]; n = 142, pooled phase I",1.4%
same,"Respiratory, thoracic and mediastinal disorders, % of subjects with drug-related TEAE","[1]; n = 142, pooled phase I",0.7%
same,"Sensation of foreign body, % of subjects with drug-related TEAE","[1]; n = 142, pooled phase I",0.7%
same,"Skin and subcutaneous tissue disorders, % of subjects with drug-related TEAE","[1]; n = 142, pooled phase I",0.7%
same,"Somnolence, % of subjects with drug-related TEAE","[1]; n = 142, pooled phase I",0.7%
same,"Vision blurred, % of subjects with drug-related TEAE","[1]; n = 142, pooled phase I",4.9%
same,"Visual acuity reduced, % of subjects with drug-related TEAE","[1]; n = 142, pooled phase I",0.7%
same,"Visual impairment, % of subjects with drug-related TEAE","[1]; n = 142, pooled phase I",9.2%
same,"Vomiting, % of subjects with drug-related TEAE","[1]; n = 142, pooled phase I",0.7%
same,"Subjects with drug-related TEAEs, %","[1]; n = 142, pooled phase I, oral 1–40 mg",21.8%
same,"Abdominal pain, subjects experiencing drug-related TEAE","[1]; of n = 142, pooled phase I",1
same,"Balance disorder, subjects experiencing drug-related TEAE","[1]; of n = 142, pooled phase I",1
same,"Cough, subjects experiencing drug-related TEAE","[1]; of n = 142, pooled phase I",1
same,"Disorientation, subjects experiencing drug-related TEAE","[1]; of n = 142, pooled phase I",1
same,"Disturbance in attention, subjects experiencing drug-related TEAE","[1]; of n = 142, pooled phase I",1
same,"Euphoric mood, subjects experiencing drug-related TEAE","[1]; of n = 142, pooled phase I",2
same,"Eye disorders, subjects experiencing drug-related TEAE","[1]; of n = 142, pooled phase I",20
same,"Eye pain, subjects experiencing drug-related TEAE","[1]; of n = 142, pooled phase I",1
same,"Feeling of relaxation, subjects experiencing drug-related TEAE","[1]; of n = 142, pooled phase I",3
same,"Gastrointestinal disorders, subjects experiencing drug-related TEAE","[1]; of n = 142, pooled phase I",4
same,"General disorders and administration site conditions, subjects experiencing drug-related TEAE","[1]; of n = 142, pooled phase I",1
same,"Headache, subjects experiencing drug-related TEAE","[1]; of n = 142, pooled phase I",6
same,"Hypervigilance, subjects experiencing drug-related TEAE","[1]; of n = 142, pooled phase I",1
same,"Muscle spasms, subjects experiencing drug-related TEAE","[1]; of n = 142, pooled phase I",1
same,"Musculoskeletal and connective tissue disorders, subjects experiencing drug-related TEAE","[1]; of n = 142, pooled phase I",1
same,"Nausea, subjects experiencing drug-related TEAE","[1]; of n = 142, pooled phase I",3
same,"Nervous system disorders, subjects experiencing drug-related TEAE","[1]; of n = 142, pooled phase I",18
same,"Nervousness, subjects experiencing drug-related TEAE","[1]; of n = 142, pooled phase I",1
same,"Oropharyngeal pain, subjects experiencing drug-related TEAE","[1]; of n = 142, pooled phase I",1
same,"Paraesthesia oral, subjects experiencing drug-related TEAE","[1]; of n = 142, pooled phase I",1
same,"Photophobia, subjects experiencing drug-related TEAE","[1]; of n = 142, pooled phase I",2
same,"Photopsia, subjects experiencing drug-related TEAE","[1]; of n = 142, pooled phase I",1
same,"Pigmentation disorder, subjects experiencing drug-related TEAE","[1]; of n = 142, pooled phase I",1
same,"Psychiatric disorders, subjects experiencing drug-related TEAE","[1]; of n = 142, pooled phase I",2
same,"Respiratory, thoracic and mediastinal disorders, subjects experiencing drug-related TEAE","[1]; of n = 142, pooled phase I",1
same,"Sensation of foreign body, subjects experiencing drug-related TEAE","[1]; of n = 142, pooled phase I",1
same,"Skin and subcutaneous tissue disorders, subjects experiencing drug-related TEAE","[1]; of n = 142, pooled phase I",1
same,"Somnolence, subjects experiencing drug-related TEAE","[1]; of n = 142, pooled phase I",1
same,"Vision blurred, subjects experiencing drug-related TEAE","[1]; of n = 142, pooled phase I",7
same,"Visual acuity reduced, subjects experiencing drug-related TEAE","[1]; of n = 142, pooled phase I",1
same,"Visual impairment, subjects experiencing drug-related TEAE","[1]; of n = 142, pooled phase I",13
same,"Vomiting, subjects experiencing drug-related TEAE","[1]; of n = 142, pooled phase I",1
same,Subjects with both eye disorders and nervous system disorders,[1]; of the 27 subjects with TEAE of interest,41%
same,"Subjects with drug-related TEAEs of interest (eye disorders and nervous system disorders), number",[1]; out of 142 subjects,27
same,"Subjects with drug-related TEAEs, number",[1]; out of 142 subjects,31
same,"Incidence of non drug-related infections and infestations, active treatment arms","[1]; vs. 0% placebo, p=0.13 (two-sided Fisher's exact test)",10.5%
same,Enzyme catalyzing oxidative metabolism,CYP3A4,predominantly catalyzed by CYP3A4
same,"Slope of linear regression, DBS concentration vs. plasma concentration",[2],0.605
same,Terminal half-life,[3],> 20 days
same,"Venous plasma–DBS scaling factor, population estimate (%RSE)","[4]; DBS concentration as % of venous plasma concentration, DBS from 12 subjects",61.8 (2.9) %
same,"Vc/F, population estimate (%RSE)","[4]; central volume of distribution, oral, 75 kg adult, n = 142",52.4 (3.4) L
same,Maximum difference in MTT between the lowest and the highest dose,"[4]; dose range 1–40 mg, 0.012–0.667 mg per kg body weight per day",70%
same,"Q1/F, population estimate (%RSE)",[4]; [5],4.60 (5.1) L/h
same,"Q2/F, population estimate (%RSE)",[4]; [5],8.45 (2.9) L/h
same,"Dose on MTT, population estimate (%RSE)","[4]; linear, dose range 1–40 mg",105 (22.3) % per mg /kg/day
same,CL/F,"[4]; male, human, in vivo, po",21.5 mL/min
same,"MTT, population estimate (%RSE)","[4]; mean absorption transit time, oral, reference LSF solution, fasted, 75 kg adult, n = 142 healthy male subjects",0.488 (3.5) h
same,"Dose on MTT, bootstrapping median (95% CI)",[4]; nonparametric bootstrap,104.5 (62.9–154) % per mg /kg/day
same,"Venous plasma–DBS scaling factor, bootstrapping median (95% CI)",[4]; nonparametric bootstrap,61.8 (58.2–65.2) %
same,"MTT, bootstrapping median (95% CI)","[4]; nonparametric bootstrap, 860 successful runs of 1,000, 75 kg adult",0.489 (0.456–0.521) h
same,"CL/F, bootstrapping median (95% CI)",[4]; [6],1.29 (1.18–1.40) L/h
same,"Q1/F, bootstrapping median (95% CI)",[4]; [6],4.60 (4.14–5.04) L/h
same,"Q2/F, bootstrapping median (95% CI)",[4]; [6],8.43 (7.97–8.87) L/h
same,"Vc/F, bootstrapping median (95% CI)",[4]; [6],52.4 (49.2–55.8) L
same,"Vp1 / F, bootstrapping median (95% CI)",[4]; [6],45.1 (38.0–53.4) L
same,"Vp2/F, bootstrapping median (95% CI)",[4]; [6],647 (592–707) L
same,Dose proportionality of exposure,"[4]; present study population, 1–40 mg",dose-proportional
same,"Food intake on MTT, population estimate (%RSE)",[4]; reference: fasted state,114 (22.6) %
same,Reduction in F when the dose was given together with food,[4]; reference: fasted state,24.4%
same,"Food intake on MTT, bootstrapping median (95% CI)","[4]; reference: fasted state, nonparametric bootstrap",114.7 (69.0–168) %
same,"Vp1 / F, population estimate (%RSE)","[4]; volume of distribution of peripheral compartment 1, oral, 75 kg adult, n = 142",44.4 (8.7) L
same,"Vp2/F, population estimate (%RSE)","[4]; volume of distribution of peripheral compartment 2, oral, 75 kg adult, n = 142",647 (4.5) L
